Experimental data published in patent US10736883B2, “Triazole furan compounds as agonists of the APJ receptor” (AMGEN INC., priority 2016, dated 2020).

Biological target: APJ receptor (Homo sapiens (Human), UniProt P35414)
Experiment: [35S]GTPγS binding assay on membranes from CHO cells stably expressing human APJ receptor
Assay type: biochemical
Settings: membranes of CHO cells stably expressing human APJ receptor, means of several independent experiments, read-out: Activity hAPJ SPA EC50 IP
How it was run: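 EC50 values were obtained by non-linear regression of [35S]GTPγS (0.2 nM) binding after 90 min at RT, with nonspecific binding defined by 100 μM GTPγS. Reactions used human APJ–expressing CHO cell membranes on WGA PS beads in HEPES pH 7.5 buffer with 5 mM MgCl2, 200 mM NaCl, 3 μM GDP and 0.1% BSA.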

APJ receptor, sequence (P35414 whole entry): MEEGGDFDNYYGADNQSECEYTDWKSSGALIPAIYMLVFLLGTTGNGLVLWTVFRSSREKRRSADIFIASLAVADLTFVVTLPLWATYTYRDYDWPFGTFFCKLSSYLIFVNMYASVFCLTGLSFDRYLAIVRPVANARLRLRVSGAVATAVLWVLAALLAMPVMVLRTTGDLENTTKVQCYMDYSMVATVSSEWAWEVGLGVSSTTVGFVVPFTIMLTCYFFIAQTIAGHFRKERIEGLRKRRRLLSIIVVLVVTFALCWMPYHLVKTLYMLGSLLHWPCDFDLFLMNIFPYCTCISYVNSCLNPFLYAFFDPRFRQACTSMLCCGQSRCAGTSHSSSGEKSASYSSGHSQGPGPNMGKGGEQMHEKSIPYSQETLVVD

Row | SMILES | EC50 [nM]
1 | COc1cccc(OC)c1-n1c(NS(=O)(=O)[C@@H](C)C2(O)COC2)nnc1-c1ccc(C)o1 (single isomer, unassigned) [Example 311.0, (1S)—N-(4-(2,6-Dimethoxyphenyl)-5-(5-methyl-2-furanyl)-4H-1,2,4-triazol-3-yl)-1-(3-hydroxy-3-oxetanyl)ethanesulfonamide or (1R)—N-(4-(2,6-dimethoxyphenyl)-5-(5-methyl-2-furanyl)-4H-1,2,4-triazol-3-yl)-1-(3-hydroxy-3-oxetanyl)ethanesulfonamide] | 190
2 | COc1cccc(OC)c1-n1c(NS(=O)(=O)[C@H]2C[C@@H](O)CN(c3cncc(C#N)n3)C2)nnc1-c1ccc(C)o1 (single isomer, unassigned) [Example 321.0, (3S,5R)-1-(6-Cyano-2-pyrazinyl)-N-(4-(2,6-dimethoxyphenyl)-5-(5-methyl-2-furanyl)-4H-1,2,4-triazol-3-yl)-5-hydroxy-3-piperidinesulfonamide or (3R,5S)-1-(6-cyano-2-pyrazinyl)-N-(4-(2,6-dimethoxyphenyl)-5-(5-methyl-2-furanyl)-4H-1,2,4-triazol-3-yl)-5-hydroxy-3-piperidinesulfonamide] | 0.18
3 | COc1cccc(OC)c1-n1c(NS(=O)(=O)[C@H]2C[C@@H](O)CN(c3ncc(F)cn3)C2)nnc1-c1ccc(C)o1 (single isomer, unassigned) [Example 323.0, (3S,5R)—N-(4-(2,6-Dimethoxyphenyl)-5-(5-methyl-2-furanyl)-4H-1,2,4-triazol-3-yl)-1-(5-fluoro-2-pyrimidinyl)-5-hydroxy-3-piperidinesulfonamide or (3R,5S)—N-(4-(2,6-dimethoxyphenyl)-5-(5-methyl-2-furanyl)-4H-1,2,4-triazol-3-yl)-1-(5-fluoro-2-pyrimidinyl)-5-hydroxy-3-piperidinesulfonamide] | 0.2
4 | COc1cccc(OC)c1-n1c(NS(=O)(=O)[C@H]2C[C@@H](O)CN(c3cncc(C#N)c3)C2)nnc1-c1ccc(C)o1 (single isomer, unassigned) [Example 325.0, (3S,5R)-1-(5-Cyano-3-pyridinyl)-N-(4-(2,6-dimethoxyphenyl)-5-(5-methyl-2-furanyl)-4H-1,2,4-triazol-3-yl)-5-hydroxy-3-piperidinesulfonamide or (3R,5S)-1-(5-cyano-3-pyridinyl)-N-(4-(2,6-dimethoxyphenyl)-5-(5-methyl-2-furanyl)-4H-1,2,4-triazol-3-yl)-5-hydroxy-3-piperidinesulfonamide] | 0.23
5 | COc1ccnc(N2C[C@H](O)C[C@H](S(=O)(=O)Nc3nnc(-c4ccc(C)o4)n3-c3c(OC)cccc3OC)C2)n1 (single isomer, unassigned) [Example 327.0, (3S,5R)—N-(4-(2,6-Dimethoxyphenyl)-5-(5-methyl-2-furanyl)-4H-1,2,4-triazol-3-yl)-5-hydroxy-1-(4-methoxy-2-pyrimidinyl)-3-piperidinesulfonamide or (3R,5S)—N-(4-(2,6-dimethoxyphenyl)-5-(5-methyl-2-furanyl)-4H-1,2,4-triazol-3-yl)-5-hydroxy-1-(4-methoxy-2-pyrimidinyl)-3-piperidinesulfonamide] | 0.25
6 | COc1cccc(OC)c1-n1c(NS(=O)(=O)[C@H]2C[C@@H](O)CN(c3nc(C)cc(C)n3)C2)nnc1-c1ccc(C)o1 (single isomer, unassigned) [Example 336.0, (3S,5R)—N-(4-(2,6-Dimethoxyphenyl)-5-(5-methylfuran-2-yl)-4H-1,2,4-triazol-3-yl)-1-(4,6-dimethylpyrimidin-2-yl)-5-hydroxypiperidine-3-sulfonamide or (3R,5S)—N-(4-(2,6-dimethoxyphenyl)-5-(5-methylfuran-2-yl)-4H-1,2,4-triazol-3-yl)-1-(4,6-dimethylpyrimidin-2-yl)-5-hydroxypiperidine-3-sulfonamide] | 0.55
7 | COc1cccc(OC)c1-n1c(NS(=O)(=O)[C@H]2C[C@@H](O)CN(C(=O)N(C)C)C2)nnc1-c1ccc(C)o1 (single isomer, unassigned) [Example 337.0, (3S,5R)-3-(N-(4-(2,6-Dimethoxyphenyl)-5-(5-methylfuran-2-yl)-4H-1,2,4-triazol-3-yl)sulfamoyl)-5-hydroxy-N,N-dimethylpiperidine-1-carboxamide or (3R,5S)-3-(N-(4-(2,6-dimethoxyphenyl)-5-(5-methylfuran-2-yl)-4H-1,2,4-triazol-3-yl)sulfamoyl)-5-hydroxy-N,N-dimethylpiperidine-1-carboxamide] | 1.3
8 | COc1cccc(OC)c1-n1c(NS(=O)(=O)[C@H]2CCCN(S(=O)(=O)C(C)C)C2)nnc1-c1ccco1 (single isomer, unassigned) [Example 339.0, (S)—N-(4-(2,6-Dimethoxyphenyl)-5-(furan-2-yl)-4H-1,2,4-triazol-3-yl)-1-(isopropylsulfonyl)piperidine-3-sulfonamide or (R)—N-(4-(2,6-dimethoxyphenyl)-5-(furan-2-yl)-4H-1,2,4-triazol-3-yl)-1-(isopropylsulfonyl)piperidine-3-sulfonamide] | 62
9 | COc1cccc(OC)c1-n1c(NS(=O)(=O)[C@@H]2CCCN(C(=O)N(C)C)C2)nnc1-c1ccco1 (single isomer, unassigned) [Example 340.0, (S)-3-(N-(4-(2,6-Dimethoxyphenyl)-5-(furan-2-yl)-4H-1,2,4-triazol-3-yl)sulfamoyl)-N,N-dimethylpiperidine-1-carboxamide or (R)-3-(N-(4-(2,6-dimethoxyphenyl)-5-(furan-2-yl)-4H-1,2,4-triazol-3-yl)sulfamoyl)-N,N-dimethylpiperidine-1-carboxamide] | 75
10 | COc1cccc(OC)c1-n1c(NS(=O)(=O)[C@@H](C)CN2C(=O)CCC[C@]2(C)C#N)nnc1-c1ccco1 (single isomer, unassigned) [Example 341.0] | 81
11 | COc1cccc(OC)c1-n1c(NS(=O)(=O)[C@H](C)CN2C(=O)CCC[C@]2(C)C#N)nnc1-c1ccco1 (single isomer, unassigned) [Example 342.0] | 121
12 | COc1cccc(OC)c1-n1c(NS(=O)(=O)[C@H]2CON(C)[C@@H]2c2ncc(F)cn2)nnc1-c1ccco1 (single isomer, unassigned) [Example 343.0, (3R,4R)—N-(4-(2,6-Dimethoxyphenyl)-5-(furan-2-yl)-4H-1,2,4-triazol-3-yl)-3-(5-fluoropyrimidin-2-yl)-2-methylisoxazolidine-4-sulfonamide or (3S,4S)—N-(4-(2,6-dimethoxyphenyl)-5-(furan-2-yl)-4H-1,2,4-triazol-3-yl)-3-(5-fluoropyrimidin-2-yl)-2-methylisoxazolidine-4-sulfonamide] | 200
13 | COc1cccc(OC)c1-n1c(NS(=O)(=O)[C@@H]2COCC[C@@H]2O)nnc1-c1ccc(C)o1 (single isomer, unassigned) [Example 402.0] | 65
14 | COc1cccc(OC)c1-n1c(NS(=O)(=O)[C@@H]2COCC[C@@H]2O)nnc1-c1ccc(C)o1 (single isomer, unassigned) [Example 403.0] | 57
15 | COc1cccc(OC)c1-n1c(NS(=O)(=O)[C@@H]2COCC[C@@H]2O)nnc1-c1ccc(C)o1 (single isomer, unassigned) [Example 404.0] | 36
16 | COc1cccc(OC)c1-n1c(NS(=O)(=O)[C@@H]2COCC[C@@H]2O)nnc1-c1ccc(C)o1 (single isomer, unassigned) [Example 405.0] | 64
17 | COc1cccc(OC)c1-n1c(NS(=O)(=O)[C@@H]2CC[C@@H](O)[C@H](O)C2)nnc1-c1ccc(C)o1 (single isomer, unassigned) [Example 406.0] | 67
18 | COc1cccc(OC)c1-n1c(NS(=O)(=O)[C@@H]2CC[C@@H](O)[C@H](O)C2)nnc1-c1ccc(C)o1 (single isomer, unassigned) [Example 407.0] | 180
19 | COc1cccc(OC)c1-n1c(NS(=O)(=O)c2cccc([C@H](C)O)c2)nnc1-c1ccc(C)o1 (single isomer, unassigned) [Example 410.0, (R)-N-(4-(2,6-dimethoxyphenyl)-5-(5-methylfuran-2-yl)-4H-1,2,4-triazol-3-yl)-3-(1-hydroxyethyl)benzenesulfonamide or (S)-N-(4-(2,6-dimethoxyphenyl)-5-(5-methylfuran-2-yl)-4H-1,2,4-triazol-3-yl)-3-(1-hydroxyethyl)benzenesulfonamide] | 11
20 | COc1cccc(OC)c1-n1c(NS(=O)(=O)c2cccc([C@@H](C)O)c2)nnc1-c1ccc(C)o1 (single isomer, unassigned) [Example 411.0, (R)-N-(4-(2,6-dimethoxyphenyl)-5-(5-methylfuran-2-yl)-4H-1,2,4-triazol-3-yl)-3-(1-hydroxyethyl)benzenesulfonamide or (S)-N-(4-(2,6-dimethoxyphenyl)-5-(5-methylfuran-2-yl)-4H-1,2,4-triazol-3-yl)-3-(1-hydroxyethyl)benzenesulfonamide] | 32
21 | COc1cccc(OC)c1-n1c(NS(=O)(=O)[C@H](C)[C@H](O)c2cccc(Cl)n2)nnc1-c1ccc(C)o1 (stereo in doubt) [Example 85.0] | 0.17
22 | COc1cccc(OC)c1-n1c(NS(=O)(=O)[C@H](C)[C@H](O)c2cccc(C)n2)nnc1-c1ccc(C)o1 (stereo in doubt) [Example 87.0] | 0.41
23 | COc1cccc(OC)c1-n1c(NS(=O)(=O)[C@H](C)[C@H](O)c2ccccn2)nnc1-c1ccc(C)o1 (stereo in doubt) [Example 90.0, (1R,2R)-N-(4-(2,6-dimethoxyphenyl)-5-(5-methylfuran-2-yl)-4H-1,2,4-triazol-3-yl)-1-hydroxy-1-(pyridin-2-yl)propane-2-sulfonamide compound and (1S,2S)-N-(4-(2,6-dimethoxyphenyl)-5-(5-methylfuran-2-yl)-4H-1,2,4-triazol-3-yl)-1-hydroxy-1-(pyridin-2-yl)propane-2-sulfonamide] | 3.9
